We go through two molecules from patent US11446269B2, “Methods of reducing or preventing oxidation of small dense LDL or membrane polyunsaturated fatty acids” (Amarin Pharmaceuticals Ireland Limited, priority 2014, dated 2022).

Assay [1] in a line: Glucose-induced membrane lipid peroxidation (LOOH, CHOD-iodide assay) in DLPC/cholesterol multilamellar vesicles (Example 4). Format: biochemical. The procedure:
Vitamin E (α-tocopherol) was also purchased from Sigma-Aldrich and prepared in ethanol at 1.0 mM (ε=3.06×10^4 M^−1 cm^−1 at 294 nm) just prior to experimental use. […] All test compounds were further diluted in ethanol or aqueous buffer as needed. Glucose was prepared in saline buffer (0.5 mM HEPES, 154 mM NaCl, pH 7.3) at 11.0 mM (200 mg/dL). CHOD-iodide color reagent (stock) was prepared, with slight modification, as described by from El-Saadani et al. (J. […] Samples were shell-dried under nitrogen gas and placed under vacuum for 1 h to remove residual solvent. […] Lipid suspensions were then vortexed for 3 min at ambient temperature to form MLVs. All MLV samples were subjected to time-dependent autoxidation by incubating at 37° C. in an uncovered, shaking water bath. This method allows lipid peroxidation to occur gradually without requiring the use of exogenous initiators. Small aliquots (5-100 μL) of each sample were removed, immediately following MLV preparation (0 hour) and after exposing samples to oxidative conditions for 72 or 96 hour, and combined with 1.0 mL of activated CHOD-iodide color reagent. Aliquot volume was reduced with each successive time point to ensure that spectrophotometric readings were within the optimal adsorption range. Test samples were covered and incubated in darkness at room temperature for at least 4 hr. Sample absorbances were then measured against a CHOD blank at 365 nm using a Beckman DU-640 spectrophotometer. The CHOD colorimetric assay is based on the oxidation of iodide (I^−) by lipid hydroperoxide (LOOH) to form triiodide (I3^−), the quantity of which is directly proportional to the amount of LOOH present in the lipid sample. The molar absorptivity (c) of I3^− is 2.46×10^4 M^−1 cm^−1 at 365 nm. […] The concentration of glucose selected was consistent with previous experimental studies of hyperglycemia under controlled laboratory conditions or observed in well-defined animal models of Type II diabetes following a glucose challenge. […] Values in FIG. 1 are mean±S.D. (N=6). EPA inhibited the peroxidative effects of glucose by 88% and 86% at 72 and 96 hours, respectively, which was highly significant (p<0.001) as compared to glucose treatment alone. […] Overall ANOVA—0 hour data: p=0.6655, F=0.4185; 72 hour data: p<0.0001, F=428.72; 96 hour data: p<0.0001, F=322.01.

The subject of another assay is HUVECs. The assay is described as follows: NO and ONOO^− release from HUVECs exposed to oxLDL, nanosensors (Example 8). The conditions noted are these: oxLDL 20 min, then agent 1 hour (EPA 10 μM, ATM 1.0 μM). It is filed as cell-based, human. The procedure:
Human umbilical vein endothelial cells (HUVECs) were isolated into primary cultures from female donors by Clonetics (San Diego, Calif.) and purchased as proliferating cells. All cell culture donors were healthy, with no pregnancy or prenatal complications. […] The confluent cells (4 to 5×10^5 cells/35 mm dish) were placed with minimum essential medium containing 3 mM L-arginine and 0.1 mM BH4 [(6R)-5,6,7,8-tetrahydrobiopterin]. Before experimental use, the cells (from second or third passage) were rinsed twice with Tyrode-HEPES buffer with 1.8 mM CaCl2.
The omega-3 fatty acids (O3FAs) cis-5,8,11,14,17-eicosapentaenoic acid (EPA) and docosahexaenoic acid (DHA) were purchased from Sigma-Aldrich (St. Louis, Mo.) and prepared initially at 11 mM in redistilled ethanol. Primary and secondary O3FA stock solutions were prepared and stored under argon at −20° C. […]
Oxidation was monitored by the use of measurements of TBARS. […] TBARS concentration was determined as malondialdehyde (MDA) equivalents with the use of an MDA standard curve. […]
The amperometric method (with a response time of 0.1 ms) provides a quantitative signal (current) that is directly proportional to changes (from basal levels) in NO or ONOO^− concentration. […] Basal NO or ONOO^− levels were measured by differential pulse voltammetry in separate experiments. […]

As to `CC/C=C\C/C=C\C/C=C\C/C=C\C/C=C\CCCC(=O)O` [EPA, cis-5,8,11,14,17-eicosapentaenoic acid], in assay [1] (1.0 μM, glucose 200 mg/dL, 96 hours), the “antioxidant effect on glucose-induced LOOH formation” value is listed as “potent antioxidant effects”. For the same molecule, in assay [1] (72- and 96-hour time points, 1:30 drug-to-phospholipid mole ratio, glucose 200 mg/dL), the “effect on LOOH formation / lipid peroxidation” value is recorded as “significantly inhibited LOOH formation”. For the same molecule, in assay [1] (tested at 1.0 and 5.0 μM, glucose-treated), the “effect on membrane LOOH formation” value is on record as “inhibit membrane LOOH formation in a dose-dependent manner”.
`O=C(O)c1cccnc1` [Niacin, nicotinic acid]: the “NO/ONOO^− Ratio” value with HUVECs is 2.00 ± 0.52. Further, the NO release with HUVECs (unit printed in b302 only) is recorded as 431 ± 100 nM.
